The assay deals with test organism. Briefly: Microbial growth inhibition test (DSM Delvotest® SP-NT), detection limit of antibiotics in spiked milk, with tomatidine added to the test medium. The assay is classed as cell-based. Conditions: 64 °C. The protocol: As a reference, a commercially available test system without any added steroidal glycoalkaloid aglycone (DSM Delvotest® SP-NT, plates containing 8 x 12 test wells) was used. In addition, four different test systems were prepared by modifying the reference test by adding the steroidal glycoalkaloid aglycone tomatidine to the test medium in a final concentration of 50 ppb, 100 ppb, 500 ppb or 2000 ppb. The detection limits of two different antibiotics were measured in the reference test and in the tests with modified medium containing different concentrations of tomatidine. The antibiotics that were measured were streptomycin and dihydrostreptomycin (DH-streptomycin) (both belonging to the aminoglycoside antibiotic family). Five different concentrations of each antibiotic (see Table 1) were measured. Hundred microliter antibiotic-free milk or hundred microliter milk spiked with the respective concentrations of antibiotic was added to the test medium (170 µl) and incubated at 64 °C in a water bath. The tests were visually determined at the point in time where a sample without antibiotic had changed colour from purple to yellow. At this point, the plates were cooled in an ice bath for 5 minutes. The cooled plates were scanned on a Delvo® scanner. The colour of each well was expressed as a Z-value; a purple colour gives rise to a positive Z-value, while a yellow colour has a negative Z-value. The Z-value of test results with samples without antibiotic is typically -5 < Z < -10. Detailed description of the scanning technology and the expression of the colour in Z-values are described in WO 03/033728. For the determination of the detection limit for each antibiotic, a dose-response function (Z-value versus concentration of antibiotic) was constructed. The detection limit is defined as the antibiotic concentration where the S-shaped dose-response function has a Z-value equal to the cut-off value.

Where [1] appears, read: Tomatidine concentration in test 0 ppb (reference Delvotest® SP-NT), cut-off Z-value 0.
[2] abbreviates: Tomatidine concentration in test 50 ppb, cut-off Z-value 0, tomatidine 50 ppb in test.
The mark [3] stands for this setting: Tomatidine concentration in test 100 ppb, cut-off Z-value 0, tomatidine 100 ppb in test.
[4] abbreviates: Tomatidine concentration in test 500 ppb, cut-off Z-value 0, tomatidine 500 ppb in test.
The mark [5] stands for this setting: Tomatidine concentration in test 2000 ppb, cut-off Z-value 0, tomatidine 2000 ppb in test.

`CN[C@@H]1[C@H](O[C@H]2[C@H](O[C@H]3[C@H](O)[C@@H](O)[C@H](NC(=N)N)[C@@H](O)[C@@H]3NC(=N)N)O[C@@H](C)[C@]2(O)CO)O[C@@H](CO)[C@H](O)[C@H]1O` [DH-streptomycin, dihydrostreptomycin] registered a Detection limit under setting [1] of 1471 ppb; a Detection limit under setting [2] of 1075 ppb; a Detection limit under setting [3] of 365 ppb; a Detection limit under setting [4] of 150 ppb; a Detection limit under setting [5] of 115 ppb.
With `[H]/N=C(/N)N[C@H]1[C@H](O)[C@@H](O)[C@H](O[C@@H]2O[C@@H](C)[C@](O)(C=O)[C@H]2O[C@@H]2O[C@@H](CO)[C@H](O)[C@@H](O)[C@@H]2NC)[C@@H](N/C(N)=N\[H])[C@@H]1O` [Streptomycin, streptomycin], the Detection limit by setting is: under setting [1], 2005 ppb; under setting [2], 1523 ppb; under setting [3], 398 ppb; under setting [4], 295 ppb; under setting [5], 79 ppb.

Source of the values: patent EP2799881A1, “Method for the determination of the presence of an antibiotic in a fluid” (DSM IP Assets B.V., priority 2013, dated 2014).
